Data set [1] has as its target T1, LecA (Pseudomonas aeruginosa, UniProt Q05097). The experiment in a line: Inhibition of Hemagglutination (HIA), LecA-induced agglutination of rabbit erythrocytes. Type of data set: cell-based. As to conditions: LecA 6 μg/mL, 25° C. As to the method: Inhibition of Hemagglutination (IHA) (or Hemagglutination Inhibition Assays (HIA)).
The LecA lectin agglutinates red blood cells since they are covered by glycoconjugates. The glycomimetics inhibit this agglutination.
For each compound the minimum concentration able to perform inhibition has been evaluated. The method is not very quantitative but mimics natural system.
(§1) More particularly, hemagglutination inhibition assays were performed in U-shaped 96-well microtitre plates. Rabbit erythrocytes were bought from Biomerieux and used without further washing. The erythrocytes were diluted to a 4% solution in NaCl (150 mM). Lectin solutions of 2 mg/mL were prepared in Tris/HCl 20 mM, NaCl 100 mM and CaCl2 100 μM. The hemagglutination unit (HU) was first obtained by the addition of 25 μL of the 4% erythrocyte solution to 25 μL aliquots of sequential (two-fold) lectin dilutions. The mixture was incubated at 25° C. for 60 minutes. The HU was measured as the minimum lectin concentration required to […] hemagglutination. For the following lectin-inhibition assays, lectin concentrations of four times that of the hemagglutination unit were used, i.e. a concentration of 6 μg/mL for LecA. Subsequent assays were then carried out by the addition of 12.5 μL lectin solution (at the required concentration) to 25 μL of sequential dilutions of glycoclusters, monomer molecules and controls. These solutions were then incubated at 25° C. for 2 h then 12.5 μL of 4% erythrocyte solution was added followed by an additional incubation at 25° C. for 30 minutes. The minimum inhibitory concentration for each molecule was determined by simple eye detection.
Compounds 5, 10, 14, 19, 21, 23, 25, 27, 29 and 31 were evaluated towards LecA according to Method 1.

The target of data set [2] is T1, LecA. The data set can be described thus: Enzyme-Linked Lectin Assay (ELLA), biotinylated LecA binding to polymeric galactose. The procedure:
Enzyme-Linked Lectin Assay (ELLA) Experiments 96-well plates are covered with polymer presenting galactose (which is the monosaccharide that is bound by LecA). The lectin labelled with biotin is added in presence of competing glycomimetics. IC50 can be measured.
More particularly, ELLA experiments were conducted using 96-well microtitre plates (Nunc Maxisorb) coated with polymeric β-D-galactose (5 μg/mL; Lectinity Holding, Inc., Moscow) diluted in carbonate buffer, pH 9.6 (100 μL) for 1 h at 37° C. After blocking at 37° C. for 1 h with 100 μL per well of 3% (w/v) BSA in PBS, plates were incubated at 37° C. for 1 h with 100 μL of biotinylated LecA at 0.1 μg/mL in the presence of serial dilutions of inhibitors. After washing with T-PBS (PBS containing 0.05% Tween), 100 μL of streptavidinperoxidase conjugate (dilution 1:10000; Boehringer-Mannheim) was added and left for 1 h at 37° C. The color was developed using 100 μL per well of 0.05 M phosphate/citrate buffer containing O-phenylenediamine dihydrochloride (0.4 mg/mL) and urea hydrogen peroxide (0.4 mg/mL) (Sigma-Aldrich). The reaction was stopped by the addition of 50 μL of 30% H2SO4. Absorbance was read at 490 nm using a microtitre plate reader (Bio-Rad; model 680).

The target in data set [3] is T1, LecA. The experiment in a line: biochemical. Type of data set: binding. As to the method:
Surface Plasmon Resonance (SPR).
Equivalent method, but performed in miniaturized channel on a galactose-containing chips in a more sophisticated apparatus (Biacore 3000) that allows for a precise determination of the IC50.
More particularly, SPR inhibition experiments were performed on a Biacore 3000 instrument at 25° C. Measurements were carried out on 2 channels with 2 immobilised sugars: α-L-fucose (channel 1), α-D-galactose (channel 2). Immobilization of sugars was performed at 25° C. using running buffer (HBS) at 5 μL/min. Immobilization on each channel (CM5 Chip) was performed independently as follows. First, channel was activated by injecting a fresh mixture of EDC/NHS (35 μL, 420 s). Then, a solution of strepatavidin (100 μg/mL in Na acetate pH 5 buffer) was injected (50 μL, 600 s). Remaining reactive species were quenched by injecting ethanolamine (1M, 35 μL, 420 s). Finally a solution of the desired biotinylated-polyacrylamide-sugar (Lectinity, 200 μg/mL) was coated onto the surface (50 μL, 600 s) through streptavidin-biotin interaction. This procedure led to 804 RU (fucoside) and 796 RU (galactoside) of immobilized sugars on channel 1 and 2 respectively. Inhibition experiments were performed with the galactosylated channel 2 and plots represent subtracted data (channel 2-channel 1).
LecA was injected using running buffer consisting of HEPES 10 mM, NaCl 150 mM, CaCl2 10 mM, Tween P20 0.005%, pH 7.4. Inhibition studies consisted in the injection (150 μL, 10 μL/min, dissociation: 120 s) of incubated (>1 h, r.t.) mixtures of LecA (5 μM) and various concentrations of inhibitor (2-fold cascade dilutions). For each inhibition assay, LecA (5 μM) without inhibitor was injected to observe the full adhesion of the lectin onto the sugar-coated surface (0% inhibition). The CM5 chip was fully regenerated by successive injections of D-Galactose (2×30 μL, 100 mM in running buffer).
Binding was measured as RU over time after blank subtraction, and data were then evaluated using the BIAevaluation Software, version 4.1. For IC50 evaluation, the response (Req-fitted) was considered as the amount of lectin bound to the sugar surface at equilibrium in the presence of a defined concentration of inhibitor. Inhibition curves were obtained by plotting the percentage of inhibition against the inhibitor concentration (on a logarithmic scale) by using Origin 7.0 software (OriginLab Corp.) and IC50 values were extracted from sigmoidal fit of the inhibition curve.

Data set [4] has as its target T1, LecA. The experiment in a line: biochemical. Type of data set: binding. As to the method: Isothermal Titration Microcalorimetry (ITC).
The method allows for a direct measurement of the affinity between the glycomimetics and the LecA lectin. The dissociation constant is measured.
More particularly, recombinant lyophilized LecA was dissolved in buffer (0.1 M TrisHCl, 6 μM CaCl2, pH 7.5) and degassed (see Supp. Info. for concentration details). Protein concentration was checked by measurement of optical density using a theoretical molar extinction coefficient of 28000. Carbohydrate ligands were dissolved directly into the same buffer, degassed, and placed in the injection syringe. ITC was performed with a VP-ITC MicroCalorimeter from MicroCal Incorporated. PA-IL was placed into the 1.4478-mL sample cell, at 25° C. Titration was performed with 10-μL injections of carbohydrate ligands every 300 s. Data were fitted with MicroCal Origin 7 software, according to standard procedures. Fitted data yielded the stoichiometry (n), the association constant (Ka) and the enthalpy of binding (ΔH).
Other thermodynamic parameters (i.e. changes in free energy, ΔG, and entropy, ΔS) were calculated from the equation: ΔG=ΔH TΔS=−RT Inka where T is the absolute temperature and R=8.314 J·mol^−1·K^−1. Two or three independent titrations were performed for each ligand tested.
This is another data set of the same source.

In data set [5] the test system is P. aeruginosa. The data set can be described thus: Mice model of lung infection, alveolar capillary barrier permeability (125I-albumin). Type of data set: in vivo. The following applies: co-instillation into lungs with P. aeruginosa, 6 h after infection. As to the method:
Mice were briefly anesthetized with inhaled sevoflurane. For each mouse, 50 l of a bacterial inoculum of 5×10^8 CFU/ml was instilled into the lungs through a gavage inserted into trachea via the oropharynx. The alveolar capillary barrier permeability was evaluated by measuring residual ^125I-albumin instilled intratracheally as an alveolar protein tracer in the lungs and its leakage and accumulation in the plasma aftert 6 h after infection. The intratracheal instillate was a mixture of 1 μCi of ^125I-labeled albumin and 5% bovine albumin together with the P. aeruginosa inoculate and different monosaccharides or glycocompounds. The total radioactivity in the instillate was measured. Fifty microliters of instillate was inoculated into the lungs of each anesthetized mouse. […] The blood was collected by carotid arterial puncture, and a sternotomy was performed to harvest and measure the radioactivity in the lungs, trachea, and stomach. The quantity of 125l-albumin that leaked into the circulation was calculated by multiplying the activity in a blood sample by the volume of blood.
Compound 14 has been compared with two monosaccharides: glucose and galactose, in animal models assays. […] For this, labelled albumin was […] was estimated. […]

The test system of data set [6] is Rabbit erythrocytes. The experiment in a line: Hemolysis of red cells observed in the hemagglutination inhibition assay. The format is cell-based. The following applies: at the concentration used in the hemagglutination inhibition assay. The procedure: as §1
The values given in table 1 are inhibiting concentrations of lectin-induced rec cells agglutination. Monocovalent glycoconjugate compound 14 and tetravalent glyconjugate compounds 21 and 23 are the most efficient.

T1 sequence (Q05097 whole entry): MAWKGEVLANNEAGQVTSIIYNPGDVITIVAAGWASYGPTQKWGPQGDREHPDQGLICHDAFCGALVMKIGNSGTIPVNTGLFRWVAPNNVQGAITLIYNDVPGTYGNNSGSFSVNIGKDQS

For the molecule `O=C(Cn1cc(CO)nn1)Nc1ccc(O[C@@H]2O[C@H](CO)[C@H](O)[C@H](O)[C@H]2O)cc1` [Comp. 14, 4-[(1,2,3-Triazol-4-hydroxymethyl-1-yl)-acetamido]phenyl β-D-galactopyranoside], the “inhibiting concentrations of lectin-induced red cells agglutination (minimum inhibitory concentration)” value in data set [1] stood at 250 µM. Moreover, the values for the half-inhibitory concentration (IC50) in data set [2] and in data set [3] were 46 µM and 2.6 µM, respectively. In data set [4], the Kd (commonly a measure of binding affinity in units of concentration) amounted to 5.8 µM. In addition, the “reduction of lung damages (alveolar barrier permeability) versus bacteria without sugar” value in data set [5] is on record as “approximately 50%”.
With `CC(C)(C)c1cc2c(OCc3cn(CC(=O)Nc4ccc(OC5OC(CO)C(O)C(O)C5O)cc4)nn3)c(c1)Cc1cc(C(C)(C)C)cc(c1OCc1cn(CC(=O)Nc3ccc(OC4OC(CO)C(O)C(O)C4O)cc3)nn1)Cc1cc(C(C)(C)C)cc(c1OCc1cn(CC(=O)Nc3ccc(OC4OC(CO)C(O)C(O)C4O)cc3)nn1)Cc1cc(C(C)(C)C)cc(c1OCc1cn(CC(=O)Nc3ccc(OC4OC(CO)C(O)C(O)C4O)cc3)nn1)C2` (centres unmarked) [Comp. 29], the “IC50 (ELLA), in words” value in data set [2] is “sub micromolar range”. The IC50 (commonly the concentration at which inhibition is half-maximal) in data set [2] (read-out: IC50 for the inhibition of labelled-LecA binding to a galactosylated polymer (ELLA), biotinylated LecA 0.1 μg/mL, multi-well plate) turned out to be 0.9 µM. In addition, the “Hemolysis of red cells” value in data set [6] is “Hemolysis of red cells is observed”.

For the origin of these results see patent US9023814B2, “Glycomimetic compounds as anti-infectious against pathogens lectins” (priority 2010, dated 2015).
